Assays:
RAT 5-LIPOXYGENASE = target: T1, RAT 5-LIPOXYGENASE (Rattus norvegicus, UniProt P12527); experiment: Biosynthesis of 5-HETE by rat polymorphonuclear leukocytes in vitro (inhibition of rat 5-lipoxygenase); assay type: cell-based; details: rat neutrophils, A23187, 3 minutes at 30° C.; concentration at which 50% inhibition is observed; read-out: INHIBITION OF RAT 5-LIPOXYGENASE, I50
T1 construct: A suspension of rat neutrophils in buffer; endogenous in cells; host or cells: rat neutrophils (polymorphonuclear leukocytes)
T1 sequence (P12527 1-673): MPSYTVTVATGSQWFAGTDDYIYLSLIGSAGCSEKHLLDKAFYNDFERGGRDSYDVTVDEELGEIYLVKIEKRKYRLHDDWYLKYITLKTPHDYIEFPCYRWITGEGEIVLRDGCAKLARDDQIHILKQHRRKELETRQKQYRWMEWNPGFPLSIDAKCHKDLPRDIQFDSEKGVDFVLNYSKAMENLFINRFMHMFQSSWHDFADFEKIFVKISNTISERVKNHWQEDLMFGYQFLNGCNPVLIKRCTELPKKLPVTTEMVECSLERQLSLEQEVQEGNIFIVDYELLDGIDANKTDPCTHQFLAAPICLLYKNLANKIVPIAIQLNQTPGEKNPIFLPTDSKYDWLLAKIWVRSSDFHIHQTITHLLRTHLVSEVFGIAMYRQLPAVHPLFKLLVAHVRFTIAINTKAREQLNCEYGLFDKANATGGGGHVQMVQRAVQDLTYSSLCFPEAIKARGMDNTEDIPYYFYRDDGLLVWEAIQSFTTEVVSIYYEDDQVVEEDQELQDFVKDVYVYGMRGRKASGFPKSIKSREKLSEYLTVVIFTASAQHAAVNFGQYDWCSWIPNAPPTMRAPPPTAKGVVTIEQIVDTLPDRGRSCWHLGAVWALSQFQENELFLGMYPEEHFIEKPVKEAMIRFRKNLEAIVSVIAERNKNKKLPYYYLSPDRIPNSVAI
Experimental: Protocol for the Biosynthesis of 5-HETE by Rat Polymorphonuclear Leukocytes In Vitro
A suspension of rat neutrophils in buffer is incubated for 3 minutes at 30° C. with [^14 C]-arachidonic acid (AA) and calcium ionophore A23187. Citric Acid (2M) NDGA (10 mM) is used to quench the reaction. Following the addition of a trace amount of (^3 H)-5-HETE together with an excess of unlabeled 5-HETE to each tube, the mixture is extracted with chloroform/methanol. The organic layer is washed with dilute acid and an aliquot is transferred to glass tubes and dried. The residue is dissolved in a small volume of chloroform and an aliquot is spotted on silica gel TLC sheets, which are developed with an ethyl acetate/isoctane/water/acetic acid solvent system. The 5-HETE spots are visualized under UV light, cut out and placed in scintillation vials for counting. After adjusting for the extraction efficiency, the amount (pmole) of [^14 C]-5-HETE in each of the tubes is quantitated. The net pmoles of 5-HETE are obtained by subtracting the pmoles of 5-HETE in the tubes containing buffer alone (blank) from the pmoles of 5-HETE in the tubes containing […]. The ability of the test compounds to modulate the activity of this enzyme is determined by a decrease or increase in the net amount of 5-HETE produced.
(§1) If the percentage of inhibition exceeds 50%, the compounds are then evaluated in terms of response over a range of concentrations. From a plot of response against concentration, the I50 value is obtained. The I50 value is the concentration at which 50% inhibition is observed.

HUMAN 5 LIPOXYGENASE = target: T2, HUMAN 5 LIPOXYGENASE (Homo sapiens, UniProt P09917); experiment: Biosynthesis of 5-HETE by human polymorphonuclear leukocytes in vitro (inhibition of human 5-lipoxygenase); assay type: cell-based; details: human neutrophils, A23187, 3 minutes at 30° C.; for IC50: concentration at which 50% inhibition is observed, read-out: INHIBITION OF HUMAN 5 LIPOXYGENASE, I50
T2 construct: A suspension of human neutrophils in buffer; endogenous in cells; host or cells: human neutrophils (PMNs) from venous blood of healthy volunteers
T2 sequence (P09917 1-674): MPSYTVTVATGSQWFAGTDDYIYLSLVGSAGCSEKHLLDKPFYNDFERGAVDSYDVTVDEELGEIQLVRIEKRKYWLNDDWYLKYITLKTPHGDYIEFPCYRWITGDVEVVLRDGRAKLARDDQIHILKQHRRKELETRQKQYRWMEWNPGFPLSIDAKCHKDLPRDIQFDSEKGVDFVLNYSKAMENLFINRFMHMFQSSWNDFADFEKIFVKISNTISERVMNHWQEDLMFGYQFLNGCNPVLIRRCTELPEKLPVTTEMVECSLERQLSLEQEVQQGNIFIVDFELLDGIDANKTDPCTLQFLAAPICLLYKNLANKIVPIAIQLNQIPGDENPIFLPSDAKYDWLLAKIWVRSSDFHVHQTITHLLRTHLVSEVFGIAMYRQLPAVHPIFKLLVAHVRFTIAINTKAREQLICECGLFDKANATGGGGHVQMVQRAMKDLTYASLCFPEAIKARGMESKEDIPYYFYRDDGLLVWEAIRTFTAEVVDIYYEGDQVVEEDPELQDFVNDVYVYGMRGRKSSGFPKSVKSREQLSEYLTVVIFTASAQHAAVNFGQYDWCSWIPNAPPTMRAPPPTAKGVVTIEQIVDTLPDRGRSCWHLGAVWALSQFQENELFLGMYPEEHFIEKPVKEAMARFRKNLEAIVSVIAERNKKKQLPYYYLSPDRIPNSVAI
Experimental: Protocol for the Biosynthesis of 5-HETE (5(S)-Hydroxyeicosatetraenoic Acid) by Human Polymorphonuclear Leukocytes In Vitro
(A) Isolation of Human Neutrophils
Freshly drawn venous blood from healthy human volunteers is mixed with 2 mM ethylenediamine tetraacetic acid, and is sedimented at 1×g over 6% dextran-saline. The leukocyte layer is aspirated, and the cells are concentrated by centrifugation and are layered over stacked Percoll® solutions, having densities of 1.072, 1.082 and 1.100, respectively. PMNs are isolated at the interface between the two densest layers after centrifugation at 400×g. Contaminating red blood cells are lysed by a short treatment of 0.16M ammonium chloride.
A suspension of human neutrophils in buffer is incubated for 3 minutes at 30° C. with (^14 C)-arachidonic acid (AA) and calcium ionophore A23187. Citric Acid (2M)/NDGA*(10 mM) is used to quench the reaction. Following the addition of a trace amount of (^3 H)-5-HETE together with an excess of unlabeled 5-HETE to each tube, the mixture is extracted with chloroform/methanol. The organic layer is washed with dilute hydrochloric acid and the total volume is transferred to glass tubes and dried in vacuo. The residue is dissolved in a small volume of chloroform and is spotted on silica gel TLC sheets, which are developed with an ethyl acetate/iso-octane/water/acetic acid solvent system (11/5/10/1 v/v). The 5-HETE spots are visualized under UV light, cut out and placed in scintillation vials for quantitation of radioactivity. After adjusting for the extraction efficiency, the amount (pmole) of (^14 C)-5-HETE in each of the tubes is calculated. The net pmoles of 5-HETE are obtained by subtracting the pmole of 5-HETE in the tubes containing buffer alone (blank) from the pmoles of 5-HETE in the tubes containing […]. The ability of the test compound to modulate the activity of this enzyme is determined by a decrease or increase in the net amount of 5-HETE produced. This assay is a modification of that described by Bach and Brashler for rat peritoneal cells: Bach, M., Brashler, J.: Ionophore A23187-Induced Production of SRS-A by Rat Peritoneal Cells In Vitro: Evidence for Production by Mononuclear Cells. J. Immunol. 120 998-1005 (1978).
*NDGA-nordihydroguaiaretic acid
as §1

IC50 (RAT 5-LIPOXYGENASE) [nM] | IC50 (HUMAN 5 LIPOXYGENASE) [µM] | inhibition at 30 µM (HUMAN 5 LIPOXYGENASE) [%] | Compound
1000 | 50 | – | COC(=O)[C@@H](Cc1ccccc1)NC(=O)Cc1ccc(OCC2CC2)c(Cl)c1 [3-Chloro-4-cyclopropylmethyloxyphenylacetyl-D-phenylalanine methyl ester]
2000 | – | 95 | COC(=O)[C@@H](Cc1ccccc1)NC(=O)Cc1ccc(OC(C)C)c(Cl)c1 [3-Chloro-4-isopropyloxyphenylacetyl-D-phenylalanine methyl ester]
700 | 7 | – | COC(=O)[C@@H](Cc1ccccc1)NC(=O)Cc1ccc(OCCc2ccccc2)c(Cl)c1 [3-Chloro-4-phenylethyloxyphenylacetyl-D-phenylalanine methyl ester]
5000 | – | 28 | COC(=O)[C@@H](Cc1ccccc1)N(C)C(=O)Cc1ccc(OCCc2ccccc2)c(Cl)c1 [3-Chloro-4-phenylethyloxyphenylacetyl-N--methyl-D-phenylalanine methyl ester]
250 | 0.6 | – | COC(=O)[C@@H](Cc1ccccc1)NC(=O)Cc1ccc(OCc2ccccc2)c(Cl)c1 [4-Benzyloxy-3-Chlorophenylacetyl-D-Phenylalanine Methyl Ester]
5400 | 14 | – | COC(=O)[C@@H](Cc1c[nH]c2ccccc12)NC(=O)Cc1ccc(OCc2ccccc2)c(Cl)c1 [4-Benzyloxy-3-chlorophenylacetyl-D-tryptophan methyl ester]
2200 | 8 | – | CN(CCc1ccccc1)C(=O)Cc1ccc(OCCc2ccccc2)c(Cl)c1 [N--[3-Chloro-4-phenylethyloxyphenylacetyl]-N--methyl-2-phenylethylamine]
4200 | 2 | – | CN(CCc1ccccc1)C(=O)Cc1ccc(OCc2ccccc2)c(Cl)c1 [N--[4-Benzyloxy-3-chlorophenylacetyl]-N--methyl-2-phenylethylamine]

From patent US4579866A, “Phenylacetamides as anti-allergy, anti-asthma and anti-inflammatory agents” (USV Pharmaceutical Corp., priority 1984, dated 1986)
